Test results: the supplement of paper PMC10307832

Legend:
Test in all cases: relative viability (nuclei count vs DMSO), 5 days (fraction); higher = more cells survive
GSK126 + Tozasertib = compound: CC[C@H](C)N1C=C(C2=C(C=C(C=C21)C3=CN=C(C=C3)N4CCNCC4)C(=O)NCC5=C(C=C(NC5=O)C)C)C [GSK126] + Cc1cc(Nc2cc(N3CCN(C)CC3)nc(Sc3ccc(NC(=O)C4CC4)cc3)n2)n[nH]1 [Tozasertib] (partner 0.1 µM)
How it was run: (§1)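 Medians of duplicate plates are given as relative viability. That measure is the nuclei count in treated wells divided by the count in vehicle wells. Counts were taken on 4× images of lung cancer cell lines in 1536-well plates, 5 days after pin-tool dosing the day after seeding with one drug alone or a fixed anchor-drug dose plus five library-drug doses (not always all listed) in √10 steps.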

Carboplatin + Navitoclax = compound: C1CC(C1)(C(=O)O)C(=O)O.[NH2-].[NH2-].[Pt+2] [Carboplatin] + CC1(C)CCC(c2ccc(Cl)cc2)=C(CN2CCN(c3ccc(C(=O)NS(=O)(=O)c4ccc(N[C@H](CCN5CCOCC5)CSc5ccccc5)c(S(=O)(=O)C(F)(F)F)c4)cc3)CC2)C1 [Navitoclax] (partner 0.5 µM)
How it was run: as §1

MLN4924 + Vorinostat = compound: NS(=O)(=O)OC[C@@H]1C[C@@H](n2ccc3c(N[C@H]4CCc5ccccc54)ncnc32)C[C@@H]1O [MLN4924] + O=C(CCCCCCC(=O)Nc1ccccc1)NO [Vorinostat] (partner 1 µM)
How it was run: as §1

Carboplatin + Alpelisib = compound: C1CC(C1)(C(=O)O)C(=O)O.[NH2-].[NH2-].[Pt+2] [Carboplatin] + Cc1nc(NC(=O)N2CCC[C@H]2C(N)=O)sc1-c1ccnc(C(C)(C)C(F)(F)F)c1 [Alpelisib] (partner 2 µM)
How it was run: as §1

UMC-11
relative viability (GSK126 + Tozasertib; first compound 0.08 µM): 0.205 | relative viability (GSK126 + Tozasertib; first compound 0.253 µM): 0.209 | relative viability (GSK126 + Tozasertib; first compound 0.8 µM): 0.197 | relative viability (GSK126 + Tozasertib; first compound 2.53 µM): 0.188 | relative viability (GSK126 + Tozasertib; first compound 8 µM): 0.199 | relative viability (Carboplatin + Navitoclax; first compound 0.08 µM): 0.325 | relative viability (Carboplatin + Navitoclax; first compound 0.253 µM): 0.355 | relative viability (Carboplatin + Navitoclax; first compound 0.8 µM): 0.342 | relative viability (Carboplatin + Navitoclax; first compound 2.53 µM): 0.313 | relative viability (Carboplatin + Navitoclax; first compound 8 µM): 0.256 | relative viability (MLN4924 + Vorinostat; first compound 0.04 µM): 0.173 | relative viability (MLN4924 + Vorinostat; first compound 0.1265 µM): 0.169 | relative viability (MLN4924 + Vorinostat; first compound 0.4 µM): 0.19 | relative viability (MLN4924 + Vorinostat; first compound 1.265 µM): 0.144 | relative viability (MLN4924 + Vorinostat; first compound 4 µM): 0.116 | relative viability (Carboplatin + Alpelisib; first compound 0.08 µM): 1 | relative viability (Carboplatin + Alpelisib; first compound 0.253 µM): 0.96 | relative viability (Carboplatin + Alpelisib; first compound 0.8 µM): 0.827 | relative viability (Carboplatin + Alpelisib; first compound 2.53 µM): 0.955 | relative viability (Carboplatin + Alpelisib; first compound 8 µM): 0.588
